Blank lines part the entries; values can stand above or below the compound they belong to.
Experiments:
HepG2 cells = settings: 10 μM; cited from earlier work
mice = settings: mouse, in vivo; cited from earlier work
HIV-1 (BaL) = assay: microbe, parasite or virus in culture; format: cell-based
Protocol: Macrophages can be isolated as follows: Monocytes can be isolated from buffy coats of HIV-1 negative, HBV/HCV-negative donors with density gradient centrifugation coupled with enrichment for CD14+ monocytes with Rosette Sep antibody cocktail (Stem Cell Technologies, Vancouver, British Columbia). Cells can be seeded at a concentration of 1.0×10^6 cells/well for 1 hr at 37° C. and 5% CO2 to confer plastic adherence prior to repeated washes with 1×PBS. Macrophages can be maintained in medium containing 100 U/ml macrophage colony-stimulating factor (m-CSF, R&D Systems, Minneapolis, Minn.), supplemented with 20% fetal calf serum (Atlanta Biologicals, Lawrenceville, Ga.) and 1% penicillin/streptomyocin (Invitrogen, Carlsbad, Calif.) for 7 days (37° C., 5% CO2) prior to testing.
Macrophage infections: Macrophages can be cultured as described above for 7 days. For acute infection, macrophages can be serum starved for 8 hrs prior to infection and cultured for 2 hr in medium containing various concentrations of AZT (positive control) or Tofacitinib or Jakafi for 2 hr prior to removal of drug-containing medium and 4 hr infection with HIV-1BaL at 0.1 MOI in the absence of drug. Four hr after infection, virus can be removed and drug-containing medium returned to the cultures. Supernatants can be collected on day 7 post-infection and HIV-1 p24 can be quantified via ELISA (Zeptometrix Corporation, Buffalo, N.Y.). EC50 analysis can be performed using CalcuSyn software (BioSoft Corporation, Cambridge, UK).
Extracellular virus was quantified 7 days after infection (HIV-1 p24 ELISA).

[1] = test system: primary human macrophages; assay: Toxicity in primary human macrophages (zombie violet live/dead dye, FACS); format: cell-based; settings: Macrophage
[2] = test system: primary human lymphocytes; assay: Proliferation and viability of activated PBM cells / PHA or PHA+IL-2 stimulated primary human lymphocytes; format: cell-based; settings: for Viability, proliferation or total cell number not affected up to: human
Protocol: The toxicity of the compounds was assessed in Vero, human PBM, CEM (human lymphoblastoid), as described previously (see Schinazi R. F., Sommadossi J.-P., Saalmann V., Cannon D. L., Xie M.-Y., Hart G. C., Smith G. A. & Hahn E. F. Antimicrob. Agents Chemother. 1990, 34, 1061-67), and also in MØ cells. Cycloheximide was included as positive cytotoxic control, and untreated cells exposed to cell culture medium were included as negative controls. […]
Cell proliferation was evaluated in activated PBM cells incubated for 5 days with various concentrations of Tofacitinib and Jakafi, with cycloheximide as a positive control, and a “cells plus media” control used as well. The data is shown in FIG. 2, in terms of total cell number (10^6 cells) versus μM drug in medium.
Cell viability was evaluated in activated PBM cells incubated for 5 days with various concentrations of Tofacitinib and Jakafi, with cycloheximide as a positive control, and a “cells plus media” control used as well.
For all experiments, cells were incubated with media alone or drug-containing medium for 5 days prior to assessment of cell count and viability. […] Data are mean and standard deviations for at least three independent experiments conducted with at least four pooled donors, and duplicates within each experiment. Dotted bar represents mean cell count or viability for cells maintained in drug-free medium.

HIV-1 = test system: HIV-1
Protocol: Human PBM cells can be isolated as follows: Lymphocytes can be isolated from buffy coats derived from healthy donors. Activated lymphocytes can be maintained for 72 hr in medium supplemented with 6 μg/ml phytohemagglutinin (PHA) (Cape Cod associates, East Falmouth, Mass.). Media can be comprised of RPMI media supplemented with 20% fetal calf serum, 1% penicillin/streptomyocin and 2% L-glutamine (Sigma Aldrich, San Jose, Calif.).
Human PBM cell infections: Testing can be performed in duplicate with at least 3 independent assays. Cells can be incubated in RPMI medium (HyClone, Logan, Utah) containing HR-IL2 (26.5 units/ml) and 20% fetal calf serum. Infections can be performed by adding HIV-ILA' followed by a further incubation at 37° C., 5% CO2, 1 hr prior to addition of drugs. Assays can be performed in 24 well plates (BD Biosciences, Franklin Lakes, N.J.). One ml of supernatant can be collected after 5 days in culture and then centrifuged at 12,000 rpm for 2 hr at 4° C. in a Jouan Br43i (Thermo Electron Corp., Marietta, Ohio). The product of the RT assay can be quantified using a Packard harvester and direct beta counter and the data can be analyzed as previously described (Schinazi et al., 1990).

MØ cells = format: cell-based; settings: human
Protocol: The toxicity of the compounds was assessed in Vero, human PBM, CEM (human lymphoblastoid), as described previously (see Schinazi R. F., Sommadossi J.-P., Saalmann V., Cannon D. L., Xie M.-Y., Hart G. C., Smith G. A. & Hahn E. F. Antimicrob. Agents Chemother. 1990, 34, 1061-67), and also in MØ cells. Cycloheximide was included as positive cytotoxic control, and untreated cells exposed to cell culture medium were included as negative controls.
The cytotoxicity IC50 was obtained from the concentration-response curve using the median effective method described previously (see Chou T.-C. & Talalay P. Adv. Enzyme Regul. 1984, 22, 27-55; Belen'kii M. S. & Schinazi R. F. Antiviral Res. 1994, 25, 1-11).

Compound: O=c1[nH]c(=O)n([C@@H]2O[C@H](CO)[C@@H](O)[C@@H]2F)cc1I [fialuridine, 1,2′-deoxy-2′-fluoro-1-D-arabinofuranosly-5-iodo-uracil]
Mitochondrial morphology in electron micrographs (HepG2 cells): enlarged mitochondria with morphological changes consistent with mitochondrial dysfunction

Compound: LR6-2: EDAGEY, SEQ ID NO 5 (listed as Homo sapiens)
Protection of mice against polymicrobial sepsis (mice): protect

EC50 (HIV-1 (BaL); Human immunodeficiency virus 1, Macrophage, 168 h, HIV-1 BaL, extracellular virus 7 days after infection, read-out: Antiviral potency in primary human macrophages (EC50)): 10 ± 20 nM
EC90 (HIV-1 (BaL); Human immunodeficiency virus 1, Macrophage, 168 h, HIV-1 BaL, extracellular virus 7 days after infection, read-out: Antiviral potency in primary human macrophages (EC90)): 700 ± 200 nM
Compound: Cc1cn([C@H]2C[C@H](N=[N+]=[N-])[C@@H](CO)O2)c(=O)[nH]c1=O [AZT, 3′-azido-3′-deoxythymidine]
Inhibition of HIV-1 replication in primary human macrophages (HIV-1 (BaL); HIV-1 BaL, p24 ELISA day 7): nanomolar inhibition
IC50 [1]: > 100000 nM

Compound: LR6-1: LQEEDA, SEQ ID NO 4 (listed as Homo sapiens)
Protection of mice against polymicrobial sepsis (mice): protect

Compound: C[C@@H]1CCN(C(=O)CC#N)C[C@@H]1N(C)c1ncnc2[nH]ccc12 [Tofacitinib, 3-{(3R,4R)-4 methyl-3-[methyl-(7H-pyrrolo[2,3-d]pyrimidin-4-yl)-amino]-piperidin-1-yl}-3-oxo-propionitrile]
Proliferation versus cells exposed to media alone [2]: not significantly different
Total cell proliferation [2]: do not affect
Total cell viability [2]: do not affect
Viability versus cells exposed to media alone [2]: not significantly different
Viability, proliferation or total cell number not affected up to ([2]; 5 days): around 10 μM
Inhibition of HIV-1 replication in PBM cells (HIV-1): sub-micromolar
Viability, proliferation or total cell number not affected up to (MØ cells): around 10 μM
Inhibition of HIV-1 replication in MØ cells (HIV-1 (BaL)): sub-micromolar

Compound: N#CC[C@H](C1CCCC1)n1cc(-c2ncnc3[nH]ccc23)cn1 [Jakafi]
Proliferation versus cells exposed to media alone [2]: not significantly different
Total cell proliferation [2]: do not affect
Total cell viability [2]: do not affect
Viability versus cells exposed to media alone [2]: not significantly different
Viability, proliferation or total cell number not affected up to ([2]; 5 days): around 10 μM
Inhibition of HIV-1 replication in PBM cells (HIV-1): sub-micromolar
Viability, proliferation or total cell number not affected up to (MØ cells): around 10 μM
Inhibition of HIV-1 replication in MØ cells (HIV-1 (BaL)): sub-micromolar

Compound: LR6-3: GEYGCM, SEQ ID NO 6 (listed as Homo sapiens)
Protection of mice against polymicrobial sepsis (mice): protect

Compound: C[C@@H]1C[C@@H]([C@H](O)CC2CC(=O)NC(=O)C2)C(=O)[C@@H](C)C1 [cycloheximide]
Cell count and viability (positive control) ([2]; stimulated lymphocytes, 5 days): toxic in a dose dependent manner

Source: US11052090B2, “Use of TREM-1 inhibitors for treatment, elimination and eradication of HIV-1 infection” (priority 2015, dated 2021)
